The record followed here is ChEMBL document CHEMBL1201862, “PubChem BioAssay data set” (2004).

In one assay the target is T1, Protein RecA (Mycobacterium tuberculosis, UniProt P9WHJ3).
T1 sequence (P9WHJ3 whole entry): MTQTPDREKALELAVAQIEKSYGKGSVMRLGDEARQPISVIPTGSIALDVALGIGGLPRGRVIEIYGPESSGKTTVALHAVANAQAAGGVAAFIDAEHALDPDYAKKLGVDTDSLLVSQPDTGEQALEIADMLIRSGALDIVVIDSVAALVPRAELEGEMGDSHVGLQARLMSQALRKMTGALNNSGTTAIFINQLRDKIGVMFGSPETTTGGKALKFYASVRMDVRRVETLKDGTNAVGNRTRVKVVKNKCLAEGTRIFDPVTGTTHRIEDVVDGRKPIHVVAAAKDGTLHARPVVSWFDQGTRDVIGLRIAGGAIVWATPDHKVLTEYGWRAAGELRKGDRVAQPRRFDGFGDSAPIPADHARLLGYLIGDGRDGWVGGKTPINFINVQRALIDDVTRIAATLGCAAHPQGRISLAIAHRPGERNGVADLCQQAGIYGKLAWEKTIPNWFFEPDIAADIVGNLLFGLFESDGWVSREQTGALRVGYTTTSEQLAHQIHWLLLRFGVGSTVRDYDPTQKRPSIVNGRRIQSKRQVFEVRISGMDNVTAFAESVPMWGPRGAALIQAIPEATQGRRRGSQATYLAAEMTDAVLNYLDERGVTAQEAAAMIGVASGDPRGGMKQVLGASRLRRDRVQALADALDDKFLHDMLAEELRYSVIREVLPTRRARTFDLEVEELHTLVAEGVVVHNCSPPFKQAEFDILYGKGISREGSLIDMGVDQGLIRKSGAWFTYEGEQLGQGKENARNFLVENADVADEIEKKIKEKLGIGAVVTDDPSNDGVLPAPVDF
Kind of assay: Fluorescence Cell-Free Homogeneous Dose Retest to Identify Inhibitors of RecA-Intein Splicing Activity. [Related pubchem assays (depositor defined):AID2097, AID2223, AID489010, AID492950]. The assay is classed as functional.

The nature of assay [1]: NIH-3T3 fibroblast cytotoxicity, dose response, cytotoxicity control, cell-based, fluorescence, Alamar Blue, secondary assay (AID 2327).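 Note: NIH-3T3 mouse fibroblasts cultured with fluconazole at 8 µg/mL.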 The format is functional.
For a further assay, the system named is Vero. Kind of assay: viability of Vero cells under compound – cytotoxicity control for flavivirus capping enzyme inhibitors (AID 588742). The format is functional. The conditions noted are these: Chlorocebus sabaeus.
The nature of assay [2]: fluconazole-exposed Candida albicans growth modulators – fluorescence, retest, confirmation (AID 2467). The assay is classed as functional, cell-based.
A further assay addresses Phospholipase A2 (Homo sapiens, UniProt P04054). The format is functional.
The target of assay [3] is RAC-gamma serine/threonine-protein kinase (Homo sapiens, UniProt Q9Y243). The format is functional.
Chain of RAC-gamma serine/threonine-protein kinase (Q9Y243 whole entry): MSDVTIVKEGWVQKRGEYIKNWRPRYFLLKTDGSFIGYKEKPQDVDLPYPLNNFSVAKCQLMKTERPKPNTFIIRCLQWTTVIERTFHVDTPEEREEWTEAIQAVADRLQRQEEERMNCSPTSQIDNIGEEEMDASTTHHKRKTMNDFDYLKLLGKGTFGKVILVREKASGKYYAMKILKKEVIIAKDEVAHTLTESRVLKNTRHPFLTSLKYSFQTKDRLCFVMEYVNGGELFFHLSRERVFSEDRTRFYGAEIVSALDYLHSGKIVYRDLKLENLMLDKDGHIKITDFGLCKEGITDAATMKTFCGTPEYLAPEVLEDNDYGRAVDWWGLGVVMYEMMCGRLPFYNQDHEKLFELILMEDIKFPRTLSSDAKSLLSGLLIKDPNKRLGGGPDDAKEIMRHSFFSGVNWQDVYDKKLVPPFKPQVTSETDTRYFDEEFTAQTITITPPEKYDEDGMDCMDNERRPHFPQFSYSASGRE
Assay [4] deals with Interleukin-1 receptor-associated kinase 4 (Homo sapiens, UniProt Q9NWZ3). The format is functional.
For assay [5], the target named is Mast/stem cell growth factor receptor Kit (Homo sapiens, UniProt P10721). The assay is classed as functional.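 Note: KIT entry within a kinase panel assay.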
The target of assay [6] is Serine/threonine-protein kinase D2 (Homo sapiens, UniProt Q9BZL6). The format is functional.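 Note: measured against PRKD2 as one member of a kinome-wide kinase profiling panel.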
Another assay deals with Ephrin type-A receptor 2 (Homo sapiens, UniProt P29317). The assay is classed as functional.
Assay [7] addresses Serine/threonine-protein kinase MRCK alpha (Homo sapiens, UniProt Q5VT25). The format is functional.
Assay [8] has as its target Rho-associated protein kinase 1 (Homo sapiens, UniProt Q13464). The format is functional.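 Note: measured within a broad kinome-wide panel profiling many kinases.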
For assay [9], the target named is Receptor tyrosine-protein kinase erbB-2 (Homo sapiens, UniProt P04626). Put plainly: Navigating the Kinome. Panel member name: ERBB2. The format is functional.
A further assay deals with LIM domain kinase 1 (Homo sapiens, UniProt P53667). Kind of assay: Navigating the Kinome. Panel member name: LIMK1. The format is functional.
Chain of LIM domain kinase 1 (P53667 whole entry, the tested form may be a part): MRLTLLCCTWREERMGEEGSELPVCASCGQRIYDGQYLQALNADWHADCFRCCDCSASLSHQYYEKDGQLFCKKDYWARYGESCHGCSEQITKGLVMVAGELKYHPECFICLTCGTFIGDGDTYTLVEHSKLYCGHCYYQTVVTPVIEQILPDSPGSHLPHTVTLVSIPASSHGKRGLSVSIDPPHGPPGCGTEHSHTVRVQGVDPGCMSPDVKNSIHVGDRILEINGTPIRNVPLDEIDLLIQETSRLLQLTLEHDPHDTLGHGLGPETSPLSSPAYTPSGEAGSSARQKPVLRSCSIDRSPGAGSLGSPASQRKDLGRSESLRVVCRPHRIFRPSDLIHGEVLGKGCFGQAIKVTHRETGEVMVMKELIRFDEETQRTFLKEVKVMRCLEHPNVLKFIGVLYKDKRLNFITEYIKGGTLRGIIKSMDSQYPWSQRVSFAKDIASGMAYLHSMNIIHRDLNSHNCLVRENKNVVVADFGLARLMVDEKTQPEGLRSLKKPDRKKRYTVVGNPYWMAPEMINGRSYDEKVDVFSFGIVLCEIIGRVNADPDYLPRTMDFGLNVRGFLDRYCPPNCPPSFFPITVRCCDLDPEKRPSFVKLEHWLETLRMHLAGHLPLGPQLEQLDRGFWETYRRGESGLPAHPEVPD
Assay [10] concerns the target Mitogen-activated protein kinase 12 (Homo sapiens, UniProt P53778). The assay is classed as functional.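 Note: measured as one member of a kinome-wide kinase profiling panel.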
The target of assay [11] is Inhibitor of nuclear factor kappa-B kinase subunit alpha (Homo sapiens, UniProt O15111). The format is functional.
In assay [12] the target is Inhibitor of nuclear factor kappa-B kinase subunit beta (Homo sapiens, UniProt O14920). The format is functional.
Chain of Inhibitor of nuclear factor kappa-B kinase subunit beta (O14920 whole entry): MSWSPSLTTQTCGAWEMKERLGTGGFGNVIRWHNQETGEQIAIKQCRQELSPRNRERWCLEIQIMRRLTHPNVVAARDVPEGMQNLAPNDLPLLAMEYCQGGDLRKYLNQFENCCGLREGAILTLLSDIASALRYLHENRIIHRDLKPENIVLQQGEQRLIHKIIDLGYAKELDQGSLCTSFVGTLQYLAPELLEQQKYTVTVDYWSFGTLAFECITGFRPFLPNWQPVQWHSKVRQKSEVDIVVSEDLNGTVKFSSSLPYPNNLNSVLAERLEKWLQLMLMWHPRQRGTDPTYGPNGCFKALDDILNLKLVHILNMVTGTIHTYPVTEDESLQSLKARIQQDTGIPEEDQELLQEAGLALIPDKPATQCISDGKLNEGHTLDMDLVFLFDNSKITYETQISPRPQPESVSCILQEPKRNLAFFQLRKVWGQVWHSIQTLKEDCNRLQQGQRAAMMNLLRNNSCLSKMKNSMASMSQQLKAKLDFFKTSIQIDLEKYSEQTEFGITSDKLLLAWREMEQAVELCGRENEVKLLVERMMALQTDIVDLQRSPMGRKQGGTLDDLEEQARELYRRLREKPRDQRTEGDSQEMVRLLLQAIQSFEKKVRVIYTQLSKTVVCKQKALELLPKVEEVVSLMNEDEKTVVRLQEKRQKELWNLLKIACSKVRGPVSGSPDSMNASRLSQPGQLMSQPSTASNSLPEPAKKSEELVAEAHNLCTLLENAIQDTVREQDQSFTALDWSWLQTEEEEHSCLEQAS
For assay [13], the target named is Serine/threonine-protein kinase Chk1 (Homo sapiens, UniProt O14757). The assay is classed as functional.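 Note: measured as one member of a kinome-wide kinase profiling panel.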
Chain of Serine/threonine-protein kinase Chk1 (O14757 whole entry): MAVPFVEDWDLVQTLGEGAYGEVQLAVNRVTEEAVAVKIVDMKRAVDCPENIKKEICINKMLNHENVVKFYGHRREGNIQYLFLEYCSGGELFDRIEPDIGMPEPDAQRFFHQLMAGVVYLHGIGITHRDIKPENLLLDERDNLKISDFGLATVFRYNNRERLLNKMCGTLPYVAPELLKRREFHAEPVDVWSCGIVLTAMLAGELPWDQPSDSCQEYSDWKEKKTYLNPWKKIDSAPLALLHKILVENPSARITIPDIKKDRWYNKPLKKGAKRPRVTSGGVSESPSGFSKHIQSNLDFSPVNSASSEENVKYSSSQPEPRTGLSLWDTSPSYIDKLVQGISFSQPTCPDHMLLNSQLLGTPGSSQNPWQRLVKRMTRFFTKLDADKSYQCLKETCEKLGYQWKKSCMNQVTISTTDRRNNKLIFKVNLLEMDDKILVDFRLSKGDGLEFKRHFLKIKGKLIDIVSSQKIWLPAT
Assay [14] deals with 3-phosphoinositide-dependent protein kinase 1 (Homo sapiens, UniProt O15530). The assay is classed as functional.
Assay [15] concerns the target Dual specificity tyrosine-phosphorylation-regulated kinase 1A (Homo sapiens, UniProt Q13627). The assay is classed as functional.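 Note: measured against DYRK1A as one member of a broad kinome profiling panel.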
Assay [16] deals with Vascular endothelial growth factor receptor 2 (Homo sapiens, UniProt P35968). The assay is classed as functional.
Chain of Vascular endothelial growth factor receptor 2 (P35968 whole entry): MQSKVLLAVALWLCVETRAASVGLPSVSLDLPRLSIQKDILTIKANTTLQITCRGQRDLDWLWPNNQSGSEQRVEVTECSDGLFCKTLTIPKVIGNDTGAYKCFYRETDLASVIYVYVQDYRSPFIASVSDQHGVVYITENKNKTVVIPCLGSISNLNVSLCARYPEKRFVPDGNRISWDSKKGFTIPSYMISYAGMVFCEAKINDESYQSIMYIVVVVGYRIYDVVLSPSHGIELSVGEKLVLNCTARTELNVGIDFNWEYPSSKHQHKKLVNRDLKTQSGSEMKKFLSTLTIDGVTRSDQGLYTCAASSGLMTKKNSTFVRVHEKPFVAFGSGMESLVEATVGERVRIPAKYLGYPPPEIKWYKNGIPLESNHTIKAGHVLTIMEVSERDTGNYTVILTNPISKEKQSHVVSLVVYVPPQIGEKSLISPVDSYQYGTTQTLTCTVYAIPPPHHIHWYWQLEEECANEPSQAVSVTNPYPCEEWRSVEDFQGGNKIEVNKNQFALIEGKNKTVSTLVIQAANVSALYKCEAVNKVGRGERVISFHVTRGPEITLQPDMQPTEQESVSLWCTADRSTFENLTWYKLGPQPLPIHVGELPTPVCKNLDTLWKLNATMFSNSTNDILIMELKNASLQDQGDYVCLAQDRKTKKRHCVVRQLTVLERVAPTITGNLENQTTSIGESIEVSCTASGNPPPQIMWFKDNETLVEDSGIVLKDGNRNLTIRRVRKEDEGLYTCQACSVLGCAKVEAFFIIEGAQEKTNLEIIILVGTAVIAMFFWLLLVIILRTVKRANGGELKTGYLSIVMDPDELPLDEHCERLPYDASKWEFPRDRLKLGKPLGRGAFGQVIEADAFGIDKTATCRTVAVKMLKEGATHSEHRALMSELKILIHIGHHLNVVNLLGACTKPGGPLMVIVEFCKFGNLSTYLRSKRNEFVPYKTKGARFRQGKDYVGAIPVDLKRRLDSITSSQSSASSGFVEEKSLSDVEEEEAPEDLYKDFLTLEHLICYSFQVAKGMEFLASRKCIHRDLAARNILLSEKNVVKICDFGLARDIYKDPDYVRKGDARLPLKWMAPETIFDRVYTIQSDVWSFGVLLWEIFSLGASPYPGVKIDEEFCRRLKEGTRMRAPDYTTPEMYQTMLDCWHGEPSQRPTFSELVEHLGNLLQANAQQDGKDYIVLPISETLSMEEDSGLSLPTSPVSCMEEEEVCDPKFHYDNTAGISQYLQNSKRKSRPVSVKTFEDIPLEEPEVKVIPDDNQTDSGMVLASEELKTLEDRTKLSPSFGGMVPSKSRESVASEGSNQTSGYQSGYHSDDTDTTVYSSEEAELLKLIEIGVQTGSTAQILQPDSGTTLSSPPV
The target in assay [17] is Platelet-derived growth factor receptor alpha (Homo sapiens, UniProt P16234). Put plainly: Navigating the Kinome. Panel member name: PDGFRA. The assay is classed as functional.
In assay [18] the target is ALK tyrosine kinase receptor (Homo sapiens, UniProt Q9UM73). The assay is classed as functional.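 Note: ALK tested as one member of a kinase panel screen.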
Assay [19] addresses Leukocyte tyrosine kinase receptor (Homo sapiens, UniProt P29376). Kind of assay: Navigating the Kinome. Panel member name: LTK. The assay is classed as functional.
Assay [20] has as its target Serine/threonine-protein kinase D3 (Homo sapiens, UniProt O94806). The format is functional.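 Note: determined within a kinase panel screen, with PRKCN as the panel member.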
The target of assay [21] is Mitogen-activated protein kinase kinase kinase kinase 2 (Homo sapiens, UniProt Q12851). The format is functional.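 Note: measured as one member of a kinome-wide kinase panel, with MAP4K2 as the panel entry.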
Assay [22] deals with Dual specificity protein kinase CLK2 (Homo sapiens, UniProt P49760). The assay is classed as functional.
Assay [23] deals with Macrophage-stimulating protein receptor (Homo sapiens, UniProt Q04912). Put plainly: Navigating the Kinome. Panel member name: MST1R. The assay is classed as functional.

The source made the active and inactive calls.

A word on the EC50: it is the concentration that produces a half-maximal response. In general, CC50 refers to the concentration that lowers cell viability or growth by half. Broadly, the IC50 is the point on the concentration scale where inhibition reaches its midpoint. As usually defined, the Ki is a dissociation constant, usually derived from enzyme kinetics or from competition with a known ligand.
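Throughout, for IC50: confirmatory dose-response counterscreen on phospholipase A2, testing hits that came from an ultra-high-throughput screen for ATG4B inhibitors.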

Chain of Rho-associated protein kinase 1 (Q13464 whole entry): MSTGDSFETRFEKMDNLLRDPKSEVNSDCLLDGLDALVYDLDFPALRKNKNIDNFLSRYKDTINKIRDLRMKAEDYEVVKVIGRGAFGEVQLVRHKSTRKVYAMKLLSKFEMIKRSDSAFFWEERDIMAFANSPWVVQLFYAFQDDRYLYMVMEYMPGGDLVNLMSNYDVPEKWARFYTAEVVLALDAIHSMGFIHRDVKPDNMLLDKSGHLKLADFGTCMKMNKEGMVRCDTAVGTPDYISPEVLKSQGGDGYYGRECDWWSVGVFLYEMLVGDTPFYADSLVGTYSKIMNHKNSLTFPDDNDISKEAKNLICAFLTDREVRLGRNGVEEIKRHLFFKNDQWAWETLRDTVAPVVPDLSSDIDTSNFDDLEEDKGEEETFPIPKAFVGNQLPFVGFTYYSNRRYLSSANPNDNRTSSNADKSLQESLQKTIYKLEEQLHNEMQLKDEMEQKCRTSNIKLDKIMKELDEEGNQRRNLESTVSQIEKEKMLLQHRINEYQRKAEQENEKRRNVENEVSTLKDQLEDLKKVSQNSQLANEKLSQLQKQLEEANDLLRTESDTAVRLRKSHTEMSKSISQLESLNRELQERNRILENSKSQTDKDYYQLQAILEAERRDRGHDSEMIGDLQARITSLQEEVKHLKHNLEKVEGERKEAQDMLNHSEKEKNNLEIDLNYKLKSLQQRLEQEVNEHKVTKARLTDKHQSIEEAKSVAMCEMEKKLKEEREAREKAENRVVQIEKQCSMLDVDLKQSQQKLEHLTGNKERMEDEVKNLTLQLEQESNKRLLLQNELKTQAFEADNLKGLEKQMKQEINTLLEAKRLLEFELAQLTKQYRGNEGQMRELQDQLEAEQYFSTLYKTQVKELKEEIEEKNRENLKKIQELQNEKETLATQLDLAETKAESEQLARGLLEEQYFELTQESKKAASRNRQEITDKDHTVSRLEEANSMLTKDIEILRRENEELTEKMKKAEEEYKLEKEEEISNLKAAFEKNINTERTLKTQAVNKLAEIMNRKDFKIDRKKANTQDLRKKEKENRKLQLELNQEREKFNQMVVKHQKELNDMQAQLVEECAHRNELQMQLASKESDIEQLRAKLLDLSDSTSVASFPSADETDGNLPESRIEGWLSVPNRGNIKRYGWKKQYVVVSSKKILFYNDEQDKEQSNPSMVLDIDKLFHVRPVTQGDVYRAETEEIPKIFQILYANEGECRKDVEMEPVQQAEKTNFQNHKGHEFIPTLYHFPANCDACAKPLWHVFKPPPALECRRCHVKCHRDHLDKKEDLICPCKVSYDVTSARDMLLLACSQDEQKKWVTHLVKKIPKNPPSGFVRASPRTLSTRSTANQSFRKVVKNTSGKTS

For `O=C1C=C(NCc2ccccc2)c2ccccc2C1=O`, the EC50 on Protein RecA is 0.774 µM (active); in assay [1], 2.61 µM (inconclusive); in assay [2], 1.84 µM (active). In the assay on Vero, the CC50 was 19.1 µM (active).

For `O=C(O)c1[nH]c2ccccc2c1C(c1cc(Cl)cc([N+](=O)[O-])c1O)c1c(C(=O)O)[nH]c2ccccc12`, the IC50 at Phospholipase A2 is 9.04 µM (active).

As for `CCOC(=O)c1cn(-c2ccc(O)cc2C)c2cc(-c3ccncc3)ccc2c1=O`, the Ki was > 10 µM (inactive) in assay [3]; > 10 µM (inactive) in assay [4]; > 1.26 µM (inactive) in [5]; > 10 µM (inactive) in [6]; > 3.16 µM (inactive) at Ephrin type-A receptor 2; 0.251 µM (active) in assay [7]. Besides, the Ki in assay [8] is 0.158 µM (active); in assay [9], > 1.58 µM (inactive); at LIM domain kinase 1 it was > 10 µM (inactive); in [10], > 6.31 µM (inactive); in assay [11] it was > 3.98 µM (inactive); in assay [12] it was > 3.16 µM (inactive). Moreover, the Ki in assay [13] is > 7.94 µM (inactive); in [14] it was > 3.98 µM (inactive); in assay [15], > 6.31 µM (inactive); in [16] it was > 7.94 µM (inactive).

In the case of `Cc1cc(=O)[nH]nc1-c1ccc(NC(=O)Nc2cc(C(F)(F)F)ccc2F)c(Cl)c1`, the Ki in assay [17] is 0.2 µM (active); in assay [8], > 3.98 µM (inactive); in [18], > 6.31 µM (inactive); on LIM domain kinase 1 it was > 3.16 µM (inactive); in [19], > 2.51 µM (inactive); in [20], > 3.98 µM (inactive). Moreover, the Ki is > 3.16 µM (inactive) in assay [13]; > 2 µM (inactive) in assay [15]; 0.316 µM (active) in assay [16]; > 2.51 µM (inactive) in assay [21]; > 3.98 µM (inactive) in assay [22]; > 3.98 µM (inactive) in assay [23].
